Assay [1] relates to Abeta 1-42 produced and secreted by SKNBE2 cells expressing hAPP695. Kind of assay: Cellular αLisa assay in SKNBE2 cells, Abeta 1-42. The settings on record: SKNBE2 cells expressing hAPP695, 18 hours incubation; for IC50: Homo sapiens, SKNBE2, 18 h, read-out: CELLULAR αLISA ASSAY IN SKNBE2 CELLS ABETA 42 PIC50 (converted). It is filed as cell-based, human. The gist of the method: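 Human neuroblastoma SKNBE2 cells expressing wild-type hAPP695 treated with compound for 18 h; secreted Abeta total or Abeta 1-42 in medium measured by sandwich αLisa (AbN/25 with Ab4G8 or cAb42/26), read after 1 h. IC50 from least-squares fit of % Controlmin, normalised to untreated and no-antibody controls.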

A further assay addresses T1, BACE1 (Homo sapiens, UniProt P56817).
T1 construct: recombinant BACE1 protein in a final concentration of 0.04 μg/ml
In words: BACE1 biochemical FRET based assay. The settings on record: recombinant BACE1 0.04 μg/ml, 20 μM substrate, 450 min, pH 5.0; for IC50: read-out: BIOCHEMICAL FRET BASED ASSAY pIC50 (converted). The gist of the method:
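Recombinant BACE1 (0.04 μg/ml final) incubated 450 min at room temperature with 20 μM Mca/Dnp-labelled 13-mer Swedish APP peptide in 50 mM citrate pH 5.0, 0.05% PEG. Fluorescence (ex 320/em 405 nm) at 450 min minus early baseline Tx; IC50 fitted from % Controlmin versus concentration.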

The target of the next assay is T2, BACE2 (Homo sapiens, UniProt Q9Y5Z0).
T2 construct: recombinant BACE2 protein in a final concentration of 0.4 μg/ml
T2 sequence (Q9Y5Z0 63-518): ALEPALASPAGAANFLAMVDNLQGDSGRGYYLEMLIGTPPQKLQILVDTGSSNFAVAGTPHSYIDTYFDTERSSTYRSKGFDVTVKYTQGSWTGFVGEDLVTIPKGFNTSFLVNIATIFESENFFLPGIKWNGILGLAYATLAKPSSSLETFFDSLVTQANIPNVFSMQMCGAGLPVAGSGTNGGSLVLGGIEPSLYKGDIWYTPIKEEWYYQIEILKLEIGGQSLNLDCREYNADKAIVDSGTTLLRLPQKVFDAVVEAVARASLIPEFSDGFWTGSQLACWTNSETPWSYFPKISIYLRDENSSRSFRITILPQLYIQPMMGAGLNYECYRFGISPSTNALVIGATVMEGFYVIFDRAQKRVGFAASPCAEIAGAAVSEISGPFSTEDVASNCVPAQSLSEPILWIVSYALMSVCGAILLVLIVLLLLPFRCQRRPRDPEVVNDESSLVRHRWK
In words: BACE2 biochemical FRET based assay. The settings on record: recombinant BACE2 0.4 μg/ml, 10 μM substrate, 450 min, pH 5.0; for IC50: read-out: BIOCHEMICAL FRET BASED ASSAY pIC50 (converted). The gist of the method:
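Recombinant enzyme (0.4 μg/ml final) incubated 450 min at room temperature with 10 μM Mca/Dnp-quenched Swedish-mutant APP peptide in 50 mM citrate pH 5.0, 0.05% PEG, no DMSO. Fluorescence (ex 320/em 405 nm) change from T0 to T450 normalised to no-enzyme and enzyme controls; IC50 from least-squares curve fit.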

T1 sequence (P56817 46-501): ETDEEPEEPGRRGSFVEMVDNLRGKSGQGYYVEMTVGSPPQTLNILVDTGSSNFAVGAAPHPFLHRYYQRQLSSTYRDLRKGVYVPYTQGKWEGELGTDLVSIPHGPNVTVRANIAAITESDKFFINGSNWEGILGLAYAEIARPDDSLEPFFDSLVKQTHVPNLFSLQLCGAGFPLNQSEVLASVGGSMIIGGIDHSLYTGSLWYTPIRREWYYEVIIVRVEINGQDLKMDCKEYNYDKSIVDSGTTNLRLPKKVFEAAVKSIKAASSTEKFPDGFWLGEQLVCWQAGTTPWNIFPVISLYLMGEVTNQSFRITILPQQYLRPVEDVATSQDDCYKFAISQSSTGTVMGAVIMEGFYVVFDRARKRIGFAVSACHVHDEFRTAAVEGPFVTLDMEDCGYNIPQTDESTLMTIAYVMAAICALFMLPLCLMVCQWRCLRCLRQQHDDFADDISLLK

For the molecule `COc1cc(C)c(-c2cnc(OC)c3c2C[C@H]2CSC(N)=N[C@@]2(c2ccc(F)cc2F)C3)cn1` [Compound 106], the results for the IC50 (in assay [1]; on BACE1; on BACE2) were 5.89 nM, 8.71 nM and 195 nM, respectively.
Turning to `COc1ncc(-c2ccccc2)c2c1C[C@]1(c3ccc(F)cc3F)N=C(N)SC[C@@H]1C2` [Compound 49], the “CELLULAR αLISA ASSAY IN SKNBE2 CELLS ABETA 42 PIC50” value in assay [1] came to 8.56. In addition, the “BIOCHEMICAL FRET BASED ASSAY pIC50” value on BACE1 is given as 8.81; on BACE2, 8.43.
With `COc1ncc(-c2cc(Cl)ccc2C)c2c1C[C@]1(c3ccc(F)cc3F)N=C(N)SC[C@@H]1C2` [Compound 60], the “CELLULAR αLISA ASSAY IN SKNBE2 CELLS ABETA 42 PIC50” value in assay [1] was 7.25. Moreover, the “BIOCHEMICAL FRET BASED ASSAY pIC50” value is on record as 8.26 on BACE1 and 6.9 on BACE2.
Take `COc1ncc(C#N)c2c1C[C@]1(c3ccccc3F)N=C(N)SC[C@@H]1C2` (racemic) [Compound 22]: the results for the IC50 (in assay [1]; on BACE1; on BACE2) were 41.7 nM, 178 nM and 240 nM, respectively.
Regarding `COc1ncc(-c2ccccc2C)c2c1C[C@]1(c3ccc(F)cc3F)N=C(N)SC[C@@H]1C2` [Compound 55], in assay [1], the “CELLULAR αLISA ASSAY IN SKNBE2 CELLS ABETA 42 PIC50” value turned out to be 7.99. In addition, the entries for the “BIOCHEMICAL FRET BASED ASSAY pIC50” value at BACE1 and on BACE2 were 8.45 and 7.4, respectively.
For `COC/C=C/c1cnc(OC)c2c1C[C@H]1CSC(N)=N[C@@]1(c1ccc(F)cc1F)C2` [Compound 47], the IC50 in assay [1] was 5.62 nM; on BACE1, 10.2 nM; at BACE2 it was 6.61 nM.
